# Data as given in US8802384B2, “Method or system using biomarkers for the monitoring of a treatment” (priority 2009, dated 2014).
# Key:
# [1] = tested on: VEGFR2^+pY^+ cells in murine peripheral blood; test: murine blood samples in vivo study (HepG2-inoculated mice), flow cytometry; conditions: 50 or 100 mg/kg p.o. for 14 days
# Method: Mice, inoculated HepG2 cells, were randomized for three groups by tumor size and treated with vehicle (control), compound A1 (50 mg/kg, p.o.) or compound A1 (100 mg/kg, p.o.) for 14 days. Mice were sacrificed and whole murine blood samples were collected by aspiration from abdominal aorta or heart. The blood was hemolyzed by an hemolytic agent at room temperature for 10 min. After centrifugation (500 g, 5 min), the cells were washed by 1 mL of staining buffer. The cells were then incubated with 100 μL of staining buffer and 5 μL of VEGFR2-PE antibody for 15 min in the dark. Then, the cells were washed and incubated in 500 μL of Fixation/Permeabilization solution for 20 min and washed by Perm/Wash buffer twice. Then, a mixture of antibodies (PY-100, CD45-PerCP-Cy5.5, 5 μL of each) and phosphatase inhibitor were added and incubated for 30 min in the dark. The cells were washed and analyzed by flow cytometry (FACS Calibur, BD). The data was obtained from Cell Quest software (BD) and analyzed by WinMDI 2.9 (free software).
# [2] = tested on: CD34^+CD45^dim peripheral blood cells; test: Phase I clinical study: CD133/CD117 subpopulations of CD34^+CD45^dim peripheral blood cells, flow cytometry; type: in vivo, human
# Method: Whole blood was collected on pre-treatment (day 1), and on day 2, day 8 and day 29 after treatment. The subpopulation of CD34^+CD45^dim peripheral blood cells identified from whole blood was further identified by cell surface markers of CD133 and CD117 using flow cytometry. Whole blood (800 μL) was supplemented with 4.5 mL of 0.2% BSA-PBS and centrifuged for 5 min (1500 rpm). After the removal of the supernatant by aspiration, 4.5 mL of 0.2% BSA-PBS was added and centrifuged. The cell pellet was mixed with 50 μL of human gamma-globulin. Antibodies (CD34-FITC, CD117-PE, CD45-PerCP and CD133-APC) were added and kept for 45 min at 4 C. An hemolytic agent (4.5 mL) was added and incubated for 10 min. After centrifugation (1500 rpm, 5 min), the supernatant was washed twice. Then, 0.2% BSA-PBS (4.5 mL) was added, and the supernatant was removed by centrifugation (1500 rpm, 5 min). The cell pellet was filled up to 800 μL with BSA-PBS and analyzed by flow cytometry. The percentage (quadrants) of CD34^+CD45^dimCD133+/−CD117+/− cells were analyzed.
# [3] = tested on: HUVEC cells; test: HUVEC cells experiment: phospho-tyrosine level after VEGF, flow cytometry; type: cell-based, Human; conditions: exposure 3 h, 20 ng/ml VEGF 5 min; A1 and AG1478 1 and 5 μM, 5FU 1 and 5 mM; FIG. 1
# Method: FIG. 1: Effect of different compounds on the phospho-tyrosine level of HUVEC cells treated with VEGF. On the abscissa: 1 is the IgG control, untreated with VEGF and unexposed to an active ingredient; 2 is the control untreated with VEGF and unexposed to an active ingredient; 3 is the control treated with VEGF but unexposed to an active ingredient; 4 is treated with VEGF and exposed to 1 μM of compound A1; 5 is treated with VEGF and exposed to 5 μM of compound A1; 6 is treated with VEGF and exposed to 1 μM of compound AG1478; 7 is treated with VEGF and exposed to 5 μM of compound AG 1478; 8 is treated with VEGF and exposed to 1 mM of compound 5FU; 9 is treated with VEGF and exposed to 5 mM of compound 5FU. HUVEC cells were exposed to compound A1 (1 μM and 5 μM), to the EGFR inhibitor AG1478 (1 μM and 5 μM) and to 5FU (5-fluorouracile, 1 mM and 5 mM) for 3 h and 20 ng/ml of VEGF were added for 5 min before cell collection. Collected cells were washed twice by PBS and centrifugation (300 g, 5 min) in 50 μL of staining buffer. After removal of the supernatant by aspiration, cell pellets were lysed in 250 μL of fixation/permeabilization solution and kept for 20 min on ice. The PY-100 Alexa 488 antibody and phosphatase inhibitor were added. […] The data was obtained from Cell Quest software (BD) and analyzed by WinMDI 2.9 (free software).
# [4] = responders, not significant, FIG. 5A
compound,measurement,setting,value
"CCS(=O)(=O)O.COC(=O)c1ccc2c(c1)NC(=O)/C2=C(\Nc1ccc(N(C)C(=O)CN2CCN(C)CC2)cc1)c1ccccc1 [compound A1, 3-Z-[1-(4-(N-((4-methyl-piperazin-1-yl)-methylcarbonyl)-N-methyl-amino)-anilino)-1-phenyl-methylene]-6-methoxycarbonyl-2-indolinone-monoethanesulphonate]",number of VEGFR2^+CD45^dimpY^+ cells,[1]; FIG. 2,seems to decrease
same,VEGFR2^+pY^+ cells in murine peripheral blood,[1]; FIG. 3,suppressed
same,CD34^+CD45^dimCD133^+CD117^+ cells in responders (stable disease) compared to non-responders,"[2]; after treatment, RES n=12, PD n=4, FIG. 5B",tended to decrease
same,percentage of CD34^+CD45^dimCD133^+CD117^+ cells,"[2]; patients with advanced solid tumors, day 29 compared with pre-treatment, p<0.001, FIG. 4A",significantly increased
same,percentage of CD34^+CD45^dimCD133^−CD117^+ cells,"[2]; patients with advanced solid tumors, day 29 compared with pre-treatment, p<0.01, FIG. 4A",decreased
same,CD34^+CD45^dimCD133^+ cells,"[2]; patients, day 29, FIG. 4B",significantly increased
same,CD34^+CD45^dimCD117^+ cells,"[2]; patients, day Band day 29, FIG. 4C",significantly decreased
same,CD34^+CD45^dimCD117^+ cells in responders (stable disease),[2]; [4],tended to decrease
same,CD34^+CD45^dimCD133^+ cells in responders (stable disease),[2]; [4],tended to decrease
same,phospho-tyrosine levels of HUVEC cells,[3],suppressed
